Experiments:
[1] = tested on: 3T3-L1 cells (mouse-derived preadipocytes); experiment: Expression of indicator genes (Cidea, Cox7a1, UCP1) of differentiation induction to brown-like adipocytes, real-time RT-PCR; type: cell-based; details: for differentiation induction action to brown-like adipocytes from white adipocytes: 3T3-L1, overall conclusion
Procedure: (§1) In order to evaluate the differentiation induction action to brown-like adipocytes of white adipocytes, the evaluation was carried out using 3T3-L1 cells (mouse-derived preadipocytes). The 3T3-L1 preadipocytes are usually differentiated to white adipocytes through a differentiation induction process to be matured. However, by the differentiation induction to brown-like adipocytes, an expression of Cidea gene, an increase in the expression amount of Cox7a1 gene expressed in mitochondria, an increase in the expression amount of cytochrome c oxidase protein specifically expressed in mitochondria, and an expression enhancement of UCP1 gene, which are hardly observed in white adipocytes, are observed. Then, the differentiation induction to brown-like adipocytes of white adipocytes was confirmed based on the expression amount of each gene of Cidea, Cox7a1, and UCP1.
For samples, two substances of resveratrol and UHA1028 were used. Since the action of the differentiation induction to brown-like adipocytes was not observed in sinapic acid, sinapic acid was not used as a comparison target. Each sample was dissolved in dimethylsulfoxide (DMSO, manufactured by Wako Pure Chemical Industries, Ltd.) with a concentration of 4 mM and 2 mM to be used for a test.
Culture was carried out using “Dulbecco's modified Eagle medium” (DMEM, Product name, manufactured by Sigma-Aldrich Corporation) containing 10% “Foetal Bovine Serum” (FBS, manufactured by Biological industries), 1% “Antibiotic-Antimycotic”, and GIBCO (manufactured by Life Technology Corporation). Adipocytes to be used for the test were prepared in accordance with a usual method.
The test was carried out as follows. 2 mL of 3T3-L1 cells were sowed with a concentration of 5×10^4 cells/mL in a 6 well dish for cell culture (manufactured by Japan Becton, Dickinson and Company), and then cultured under the conditions of 37° C. and 5% CO2 for 24 hours. 24 hours later, the DMEM culture medium was exchanged to a DMEM culture medium which was adjusted in such a manner that the final concentration of the UHA1028 was 10 μM or the final concentration of the resveratrol was 20 μM, culture was continued in such a manner that the cells were confluent to 100%, and then culture was further carried out for 48 hours. Next, the culture medium was exchanged to a culture medium in which 10 μL of each sample (Final concentration of 20 μM and 10 μM) was added to 2 mL DMEM for differentiation, to which 1% of insulin, 0.5% of dexamethasone, and 0.1% of isobutylmethylxanthine were added, attached to “AdipoInducer Reagent” (Product name, manufactured by Takara Bio, Inc.), and then differentiation induction was carried out under the conditions of 37° C. and 5% CO2 for 48 hours. After the differentiation induction for 48 hours, the culture medium was exchanged to 2 mL of DMEM for maintaining culture to which 1% of insulin was added, and then culture was further carried out for one week for maturing adipocytes. One to which 0.5% of only DMSO which is a solvent was added was used as a control.
After the end of the culture, the total amount RNA was extracted from the cells using an RNA extraction kit (Product name: NucleoSpin (Registered Trademark) RNA II, manufactured by Takara Bio, Inc.) and refined. […]

[2] = tested on: 3T3-L1 cells (mouse-derived preadipocytes); experiment: Expression of indicator protein CO1 (mitochondria marker), Western blot; type: cell-based
Procedure: as §1, with “an” for “an expression of Cidea gene, an increase in the expression amount of Cox7a1 gene expressed in mitochondria, an”, “mitochondria is” for “mitochondria, and an expression enhancement of UCP1 gene, which are hardly observed in white adipocytes, are”, “the CO1 protein.” for “each gene of Cidea, Cox7a1, and UCP1.”
Culture of cells was carried out by the same method as that of Example 2 using the same samples and cells as those in Example 2. […] After the extraction, the protein concentration was measured using a BCA protein assay kit (manufactured by Thermo Fisher Scientific K.K.). […]
After the electrophoresis, the proteins are transferred to PVDF membranes (manufactured by EMD Millipore) by a semidry blotting device “TRANS-BLOT S-D SEMI-DRY TRANSFER CELL” (Product name, manufactured by Bio-Rad Laboratories Inc.), and then blotting was carried out by Immunoblock (manufactured by DS Pharma Biomedical Co., Ltd.). […] The band strength of the detected band was calculated using an image analysis software “Image J”.

[3] = tested on: mature adipocytes; details: Japanese Patent Application No. 2011-145331; cited from earlier work
[4] = tested on: preadipocytes; details: Japanese Patent Application No. 2012-240364; cited from earlier work
[5] = tested on: human vascular endothelial cells; details: Japanese Patent Application No. 2011-118367; cited from earlier work
[6] = tested on: mature adipocytes; details: Japanese Patent Application No. 2011-186054; cited from earlier work
[7] = 3T3-L1, UHA1028 10 μM, as compared with resveratrol 20 μM, FIG. 1

Row | SMILES | differentiation induction action to brown-like adipocytes from white adipocytes [1] | mitochondria marker protein (CO1) expressed in mature adipocytes ([2]; 3T3-L1, Western blot band strength, as compared with DMSO and resveratrol, FIG. 2) | amount of mitochondria in the cells ([2]; 3T3-L1, results of Examples 2 and 3, as compared with resveratrol) | adiponectin production promotion action [3] | differential inhibition action to mature adipocytes of preadipocytes [4] | expression amount of the Cox7a1 (mitochondria marker gene) [1, 7] | expression amount of the UCP1 gene [1, 7] | gene expression amount of the Cidea (marker gene of the brown-like adipocytes) [1, 7] | sirtuin expression promotion action [5] | lipoprotein lipase promotion action [6]
1 | COc1cc(/C=C/C(=O)O)cc(OC)c1O [sinapic acid, reference compound] | not observed |  |  |  |  |  |  |  |  | 
2 | COc1cc(C(C)c2c(O)cc(/C=C/c3ccc(O)cc3)cc2O)cc(OC)c1O (centres unmarked) [UHA1028] | notably induced | significantly large | significantly increased | adiponectin production promotion action | differential inhibition action | significantly increased | significantly increased | significantly increased | sirtuin expression promotion action | lipoprotein lipase promotion action

Source: US8987522B2, “Differentiation inducer to brown-like adipocyte of white adipocyte” (Uha Mikakuto Co., Ltd., priority 2012, dated 2015)
